Test results taken from PubChem BioAssay (NCI).
Values joined by “and” are separate entries in the source; they are usually repeats but may differ in a detail not shown here. Equal entries are not always repeated.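 Where inhibition never reached the appropriate level, the endpoint shown equals the highest concentration tested. Otherwise, values were interpolated linearly from a five-concentration, 48-hour dose response in 96-well plates. GI50 = concentration required for 50% inhibition of growth. TGI denotes the concentration required for complete inhibition of growth.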

Assays:
Experiment in all cases: DTP human tumour cell line panel, 48 h
HCC-2998 colon = test system: HCC-2998 colon
SK-MEL-5 melanoma = test system: SK-MEL-5 melanoma
A498 renal = test system: A498 renal
OVCAR-4 ovarian = test system: OVCAR-4 ovarian
SF-539 CNS = test system: SF-539 CNS
HOP-62 NSCLC = test system: HOP-62 NSCLC
TK-10 renal = test system: TK-10 renal
OVCAR-5 ovarian = test system: OVCAR-5 ovarian
CCRF-CEM leukemia = test system: CCRF-CEM leukemia
SK-MEL-2 melanoma = test system: SK-MEL-2 melanoma

SMILES	GI50 (HCC-2998 colon) [µM]	TGI (HCC-2998 colon)	GI50 (SK-MEL-5 melanoma) [µM]	TGI (SK-MEL-5 melanoma)	GI50 (A498 renal) [µM]	TGI (A498 renal)	GI50 (OVCAR-4 ovarian) [µM]	TGI (OVCAR-4 ovarian)	GI50 (SF-539 CNS) [µM]	TGI (SF-539 CNS)	GI50 (HOP-62 NSCLC) [µM]	TGI (HOP-62 NSCLC)	GI50 (TK-10 renal) [µM]	TGI (TK-10 renal)	GI50 (OVCAR-5 ovarian) [µM]	TGI (OVCAR-5 ovarian)	GI50 (CCRF-CEM leukemia) [µM]	TGI (CCRF-CEM leukemia)	GI50 (SK-MEL-2 melanoma) [µM]	TGI (SK-MEL-2 melanoma)
Cc1cc(Cl)cc(Cc2cc(Cl)cc(C)c2O)c1O	2.68	7.95 µM	1.71	3.61 µM	3.05	14.1 µM	3.29	50.6 µM	2.45	6.62 µM	3.66	11.5 µM	3.97	12 µM	3.35	12.3 µM	3.08	16.1 µM	2.6	5.73 µM
Cc1ccc(OCC2OC(n3cnc4c(Br)nc(Br)nc43)CC2Oc2ccc(C)cc2)cc1 (stereo not given)	3.07	11.8 µM and 7.24 µM	13.4	23.8 µM and 23.7 µM	22.9	20.6 µM and 41 µM	1.56	4.84 µM and 7.55 µM	0.466	10.2 µM and 15.6 µM	9.08	19.2 µM and 17.1 µM	14.4	28.4 µM and > 54.3 µM	16.1	34.2 µM and 42.2 µM	1.8	3.44 µM and > 25.5 µM	14.1	28.3 µM and 8.15 µM
COC(=O)[C@]12CC[C@@H](C)[C@H](C)[C@@H]1C1=CC[C@@H]3[C@@]4(C)C(C=O)=C[C@@](C)(COC(=O)/C=C/c5ccccc5)[C@@H]4[C@H](O)C[C@@]3(C)[C@]1(C)CC2	3.04	7.75 µM	2.2	5.92 µM	4.8	23.7 µM	3.16	> 100 µM	3.78	17.5 µM	9.4	32.1 µM	6.74	39.3 µM	3.08	13.6 µM	2.39	> 100 µM	3.21	12.8 µM
C#Cc1cccc(NC(=O)c2ccc(NC(=O)CCl)cc2)c1	> 82.5	> 82.5 µM	24.9	> 82.5 µM	> 82.5	> 82.5 µM	16.7	72 µM	12.6	24.7 µM	68.3	> 82.5 µM	42.7	> 82.5 µM	21.4	> 82.5 µM	7.37	32.4 µM	69.8	> 82.5 µM
CCOC(=O)C(C(O)c1ccc([N+](=O)[O-])cc1)P(=O)(OCC)OCC (stereo not given)	–	> 100 µM	–	> 100 µM	–	> 100 µM	–	> 100 µM	–	> 100 µM	–	> 100 µM	–	> 100 µM	–	> 100 µM	–	> 100 µM	–	> 100 µM
COc1ccc(/C=C2\c3cc(OC)c(OC)c(OC)c3CC[C@@H]2O)cc1F	0.809	80.2 µM	0.234	17.2 µM	0.152	0.697 µM	1.1	> 100 µM	0.272	0.917 µM	0.245	> 100 µM	–	–	10.4	> 100 µM	0.815	> 100 µM	–	–
CCc1cccc(C)c1NC(=S)NC(=O)c1ccccc1C(=O)NC(=S)Nc1c(C)cccc1CC	–	> 100 µM	–	> 100 µM	–	> 100 µM	–	> 100 µM	–	> 100 µM	–	> 100 µM	–	> 100 µM	–	> 100 µM	–	> 100 µM	–	> 100 µM
COC1=CC(=O)c2nc(Cl)ccc2C1=O	11.4	23.6 µM	1.66	3.02 µM	12	24.3 µM	1.5	2.83 µM	1.62	3.03 µM	1.94	3.4 µM	2.09	4.23 µM	2.06	4.88 µM	2.23	> 100 µM	2.07	3.98 µM
CCN(Cc1ccc(F)cc1)c1ccc(CO)c(OC)c1	21.9	> 60.5 µM	11.9	24.9 µM	0.331	1.37 µM	7.02	20.6 µM	45.1	> 100 µM	40.8	> 100 µM	2.14	16.8 µM	2.64	12.2 µM	21.2	72 µM	11.9	27.7 µM
C/C(=N\NC(=O)CC(=O)N(C(=O)c1ccc(Cl)cc1)c1ccc(C)cc1)c1ccccc1O	–	–	–	> 100 µM	–	> 100 µM	–	13.7 µM	–	> 100 µM	–	> 100 µM	–	> 100 µM	–	> 100 µM	–	> 100 µM	–	> 100 µM
c1ccc(N/N=C2\NN=C(c3ccccc3)CS2)cc1	–	19.3 µM	–	–	–	25.8 µM	–	–	–	41.7 µM	–	> 100 µM	–	26.5 µM	–	41.8 µM	–	54.9 µM	–	44 µM
CC(C)C1N2CCCCC2[C@@H]2c3[nH]c4ccccc4c3CCN12 (stereo not given in full)	–	> 100 µM	–	> 100 µM	–	> 100 µM	–	> 100 µM	–	> 100 µM	–	> 100 µM	–	–	–	> 100 µM	–	> 100 µM	–	> 100 µM
Cc1nccc2c3ccc(OCc4cn(-c5ccc(Cl)cc5)nn4)cc3n(CC(C)C)c12	3.68	> 33.3 µM	1.64	6.15 µM	1.39	9.32 µM	2.24	15.1 µM	2.82	10.9 µM	–	–	6.89	19.5 µM	4.68	23.2 µM	2.04	> 33.3 µM	5.59	22.5 µM
CCCCCC[C@H](C)NC(=O)c1ccc(Nc2nc3ccccc3c3occc23)cc1	1.26	4.16 µM	2.24	5.24 µM	2.74	7.54 µM	–	–	2.48	5.31 µM	3.39	12.9 µM	5.26	33.5 µM	5.35	> 100 µM	3.68	> 100 µM	2.64	6.83 µM
CCOP1(=O)C=C(C)C(=C(Cl)Cl)C(C)=C1 (stereo not given)	–	31.4 µM	–	–	–	76.3 µM	–	29.1 µM	–	66.7 µM	–	40.6 µM	–	77.2 µM	–	–	–	68.6 µM	–	56.2 µM
CCN(CC)CCn1c2ccccc2c(=O)c2c(OC)ccc(OC)c21	–	–	–	–	–	> 100 µM	–	> 100 µM	–	> 100 µM	–	> 100 µM	–	–	–	> 100 µM	–	> 100 µM	–	> 100 µM
CC1CC[P+](c2ccccc2)(c2ccccc2)CC1	–	> 100 µM	–	51.1 µM	–	> 100 µM	–	–	–	> 100 µM	–	> 100 µM	–	> 100 µM	–	> 100 µM	–	> 100 µM	–	> 100 µM
COc1ccc2nc(NC(=O)C(=O)NNC(=O)c3ccncc3)sc2c1	–	> 100 µM	–	> 100 µM	–	> 100 µM	–	> 100 µM	–	> 100 µM	–	> 100 µM	–	> 100 µM	–	–	–	> 100 µM	–	–
C[Si](C)(C)C(Sc1ccccc1)(Sc1ccccc1)Sc1ccccc1	–	> 100 µM	–	> 100 µM	–	> 100 µM	–	> 100 µM	–	> 100 µM	–	–	–	> 100 µM	–	–	–	> 100 µM	–	> 100 µM
C1C[OH+]CC[OH+]CCNCC[OH+]CC[OH+]CCN1.Cl.[Cl-].[Pt+4]	–	–	> 100	> 100 µM	> 100	> 100 µM	–	–	> 100	> 100 µM	–	–	> 100	> 100 µM	–	–	> 100	> 100 µM	–	–
CN1CCN(Cc2cc(NC(=O)c3cccc(C#Cc4cccc5[nH]nc(N)c45)c3)cc(C(F)(F)F)c2)CC1	1.99	3.66 µM	1.7	3.1 µM	1.01	2.22 µM	1.59	3.97 µM	1.17	2.43 µM	1.55	3 µM	1.96	3.38 µM	1.5	2.98 µM	–	–	1.72	3.4 µM
CC1(C)N=C(N)N=C(N)N1c1cccc(Br)c1	0.777	> 45.5 µM	1.03	> 100 µM	15.9	> 100 µM	8.66	> 100 µM	0.393	> 100 µM	0.777	> 100 µM	–	> 100 µM	–	–	2.24	> 100 µM	> 100	> 100 µM
O=C(O[C@H]1CCN2C[C@H]3C[C@H](CN4C(=O)CCC[C@H]34)[C@@H]2C1)c1ccc(O)cc1	–	> 100 µM	–	–	–	> 100 µM	–	> 100 µM	–	> 100 µM	–	> 100 µM	–	> 100 µM	–	> 100 µM	–	> 100 µM	–	> 100 µM
C=CCN(N=O)C(=O)NCCCCC(NC(C)=O)C(=O)NCc1ccccc1 (stereo not given)	–	–	–	> 100 µM	–	> 100 µM	–	> 100 µM	–	> 100 µM	–	> 100 µM	–	> 100 µM	–	> 100 µM	–	> 100 µM	–	> 100 µM
C/C(=N/Nc1nc(C)cc(=O)[nH]1)C(=O)O	–	> 100 µM	–	> 100 µM	–	> 100 µM	–	> 100 µM	–	–	–	> 100 µM	–	> 100 µM	–	> 100 µM	–	> 100 µM	–	> 100 µM
